Experimental data taken from US7678778B2 (priority 2004, dated 2010).

System: B16 Melanoma
Details: in vivo

Compound | T-C
O=P1(N(CCCl)CCCl)NCCCO1 (centres unmarked) [Cyclophosphamide, cyclophosphamide] | 27 days
O=P1(NCCCl)OCCCN1CCCl (centres unmarked) [Ifosfamide] | 18 days
